# Data reported in publication PMC8047676 (ACS Omega, 2021).
# Several values for one entry are separate records, joined by “and”; a condition that tells them apart may be missing. Identical values can stand only once.
# Legend:
# CHIKV [1] = details: cited from earlier work
# CHIKV [2] = details: Vero A cells, cited from earlier work
# [3] = test system: CHIKV prototype strain S27; experiment: Plaque assay of CHIKV-infected BHK-21 cells; assay type: cell-based, Chikungunya virus (CHIKV); details: for plaque numbers reduced: BHK-21 cells, CHIKV S27 MOI 0.01, 24 hpi
# CHIKV E2 RNA = experiment: RT-PCR of CHIKV E2 RNA in infected BHK-21 cells; assay type: cell-based, Chikungunya virus (CHIKV); details: 24 h post treatment, normalized to GAPDH
# CHIKV E2 protein = experiment: Flow cytometry of E2 protein expression in infected BHK-21 cells; assay type: cell-based, Chikungunya virus (CHIKV); details: for percentages of infected cells showing E2 expression reduced: flow cytometry, 24 h post treatment
# CHIKV nsP2 protein = experiment: Flow cytometry of nsP2 protein expression in infected BHK-21 cells; assay type: cell-based, Chikungunya virus (CHIKV); details: for numbers of cells expressing nsP2 protein reduced: flow cytometry, 24 h post treatment
# CHIKV nsP2 RNA = experiment: RT-PCR of CHIKV nsP2 RNA in infected BHK-21 cells; assay type: cell-based, Chikungunya virus (CHIKV); details: 24 h post treatment, normalized to GAPDH
# [4] = test system: CHIKV nonstructural protein nsP2; experiment: Western blot of CHIKV nsP2 protein in infected BHK-21 cells; assay type: cell-based, Chikungunya virus (CHIKV); details: 24 h
# [5] = test system: CHIKV envelope E2 glycoprotein; experiment: Western blot of CHIKV E2 protein in infected BHK-21 cells; assay type: cell-based, Chikungunya virus (CHIKV); details: 24 h
# [6] = MTT cellular cytotoxicity assay; assay type: cell-based; details: hamster, BHK-21 cells
# BHK-21 cells = experiment: Microscopic observation of cell morphology; assay type: cell-based, hamster; details: 5, 10 and 20 μM, 24 h, microscope
# [7] = ribavirin treatment, concentration not given
smiles,measurement,setting,value
CCN(CC)CCCC(C)Nc1ccnc2cc(Cl)ccc12 (centres unmarked) [Chloroquine],"IC50, antiviral effects in vitro",CHIKV [1],1.1 µg/mL
same,IC50,"CHIKV [2]; read-out: IC50, inhibition of CHIKV replication",7 µM
same,IC90,"CHIKV [2]; read-out: IC90, inhibition of CHIKV replication",15 µM
"NC(=O)c1ncn([C@@H]2O[C@H](CO)[C@@H](O)[C@H]2O)n1 [Ribavirin, reference compound]",plaque numbers reduced,[3]; 10 μM,99.15%
same,RNA levels of E2 diminished,CHIKV E2 RNA; 10 μM,75.8%
same,viral E2 protein level by flow cytometry,CHIKV E2 protein; [7],decreased
same,viral nsP2 protein level by flow cytometry,CHIKV nsP2 protein; [7],decreased
same,RNA levels of nsP2 decreased,CHIKV nsP2 RNA; 10 μM,82.7%
C=C[C@H]1C[N@@]2CC[C@H]1C[C@H]2[C@H](O)c1ccnc2ccc(OC)cc12 [quinine],"IC50, inhibits CHIKV in vitro",CHIKV [1],0.1 µg/mL
"Cn1c(=O)c(C(=O)CCN2CCOCC2)c(O)c2ccccc21 [QVIR, 4-hydroxy-1-methyl-3-(3-morpholinopropanoyl)quinoline-2(1H)-one]",plaque numbers reduced,[3]; 5 μM,82.62%
same,plaque numbers reduced,[3]; 10 μM,97.86%
same,plaque numbers reduced,[3]; 20 μM,99.61%
same,EC50,"[3]; Chikungunya virus, BHK-21, 24 h, read-out: EC50 (50% effective concentration) against CHIKV infection",2.2 ± 0.49 µM
same,protein levels of nsP2 reduced,[4]; 10 μM,63.4%
same,protein levels of nsP2 reduced,[4]; 20 μM,69.9%
same,RNA levels of E2 diminished,CHIKV E2 RNA; 5 μM,39%
same,RNA levels of E2 diminished,CHIKV E2 RNA; 10 μM,55.6%
same,RNA levels of E2 diminished,CHIKV E2 RNA; 20 μM,74%
same,percentages of infected cells showing E2 expression reduced,CHIKV E2 protein; 5 μM,44.60%
same,percentages of infected cells showing E2 expression reduced,CHIKV E2 protein; 10 μM,51.22%
same,percentages of infected cells showing E2 expression reduced,CHIKV E2 protein; 20 μM,67.7%
same,E2 protein levels suppressed,[5]; 5 μM,22.8%
same,E2 protein levels suppressed,[5]; 10 μM,45.8%
same,E2 protein levels suppressed,[5]; 20 μM,53.9%
same,CC50 at 24 h,[6],> 200 µM
same,morphological changes of BHK-21 cells,BHK-21 cells,inertness
same,numbers of cells expressing nsP2 protein reduced,CHIKV nsP2 protein; 5 μM,43.25%
same,numbers of cells expressing nsP2 protein reduced,CHIKV nsP2 protein; 10 μM,54.04%
same,numbers of cells expressing nsP2 protein reduced,CHIKV nsP2 protein; 20 μM,71.48%
same,RNA levels of nsP2 decreased,CHIKV nsP2 RNA; 5 μM,52.1%
same,RNA levels of nsP2 decreased,CHIKV nsP2 RNA; 10 μM,67.5%
same,RNA levels of nsP2 decreased,CHIKV nsP2 RNA; 20 μM,84% and 84.1%
